From ChEMBL document CHEMBL5385860, “Antiproliferative, antiangiogenic and apoptotic effect of new hybrids of quinazoline-4(3H)-ones and sulfachloropyridazine” (Eur J Med Chem, 2023)

Assays:
NCI-H23 = assay: Cytotoxicity against human NCI-H23 cells assessed as growth inhibition at 10 uM relative to control; assay type: functional; settings: read-out: GI
UACC-257 = assay: Cytotoxicity against human UACC-257 cells assessed as growth inhibition at 10 uM relative to control; assay type: functional; settings: read-out: GI
ACHN = assay: Cytotoxicity against human ACHN cells assessed as growth inhibition at 10 uM relative to control; assay type: functional; settings: read-out: GI
SF-539 = assay: Cytotoxicity against human SF-539 cells assessed as growth inhibition at 10 uM relative to control; assay type: functional; settings: read-out: GI
NCI/ADR-RES = assay: Cytotoxicity against human NCI/ADR-RES cells assessed as growth inhibition at 10 uM relative to control; assay type: functional; settings: read-out: GI
UO-31 [1] = assay: Cytotoxicity against human UO-31 cells assessed as growth inhibition at 10 uM relative to control; assay type: functional; settings: read-out: GI
HOP-92 = assay: Cytotoxicity against human HOP-92 cells assessed as growth inhibition at 10 uM relative to control; assay type: functional; settings: read-out: GI
CCRF-CEM = assay: Cytotoxicity against human CCRF-CEM cells assessed as growth inhibition at 10 uM relative to control; assay type: functional; settings: read-out: GI
UO-31 [2] = assay: Induction of cell cycle arrest in human UO-31 cells assessed as cell aggregates at 1.67 uM measured after 24 hrs by PI staining based flow cytometry analysis (reference value: 1.82%); assay type: functional
UO-31 [3] = assay: Induction of apoptosis in human UO-31 cells assessed as necrotic cells at IC50 by Annexin V-FITC/PI staining based flow cytometry analysis (reference value: 1.19%); assay type: functional
[4] = Inhibition of PDGFR (unknown origin) incubated for 60 mins in presence of ATP by ADP-Glo kinase assay; parameters: species or system Homo sapiens
UO-31 [5] = assay: Induction of apoptosis in human UO-31 cells assessed as Bax protein level by ELISA (reference value: 70.11 +/- 7.45 pg/ml); assay type: functional
UO-31 [6] = assay: Induction of apoptosis in human UO-31 cells assessed as early apoptotic cells at IC50 by Annexin V-FITC/PI staining based flow cytometry analysis (reference value: 0.61%); assay type: functional
UO-31 [7] = assay: Induction of apoptosis in human UO-31 cells assessed as Bcl-2 protein level by ELISA (reference value: 12.19 +/- 0.64 ng/ml); assay type: functional
[8] = biological target: Vascular endothelial growth factor A, long form (Homo sapiens) (UniProt P15692); assay: Inhibition of VEGF-mediated cell migration in HUVEC cells assessed as wound closure at 10 ug/ml measured after 72 hrs by scratch-wound healing assay; assay type: cell-based; parameters: scale not given: the % may be the effect or the level left; settings: dose 10.0 µg/ml
UO-31 [9] = assay: Induction of apoptosis in human UO-31 cells assessed as late apoptotic cells at IC50 by Annexin V-FITC/PI staining based flow cytometry analysis (reference value: […]); assay type: functional
UACC-62 = assay: Cytotoxicity against human UACC-62 cells assessed as growth inhibition at 10 uM relative to control; assay type: functional; settings: read-out: GI
U-251 = assay: Cytotoxicity against human U-251 cells assessed as growth inhibition at 10 uM relative to control; assay type: functional; settings: read-out: GI
CAKI-1 = assay: Cytotoxicity against human CAKI-1 cells assessed as growth inhibition at 10 uM relative to control; assay type: functional; settings: read-out: GI
SF-268 = assay: Cytotoxicity against human SF-268 cells assessed as growth inhibition at 10 uM relative to control; assay type: functional; settings: read-out: GI
MOLT-4 = assay: Cytotoxicity against human MOLT-4 cells assessed as growth inhibition at 10 uM relative to control; assay type: functional; settings: read-out: GI
T47D = assay: Cytotoxicity against human T47D cells assessed as growth inhibition at 10 uM relative to control; assay type: functional; settings: read-out: GI
M14 [10] = assay: cells; settings: Homo sapiens, M14, light or radiation study
LOX IMVI = assay: Cytotoxicity against human LOX IMVI cells assessed as growth inhibition at 10 uM relative to control; assay type: functional; settings: read-out: GI
SNB-75 = assay: Cytotoxicity against human SNB-75 cells assessed as growth inhibition at 10 uM relative to control; assay type: functional; settings: read-out: GI
MDA-MB-468 = assay: Cytotoxicity against human MDA-MB-468 cells assessed as growth inhibition at 10 uM relative to control; assay type: functional; settings: read-out: GI
K562 = assay: Cytotoxicity against human K562 cells assessed as growth inhibition at 10 uM relative to control; assay type: functional; settings: read-out: GI
PC-3 = assay: Cytotoxicity against human PC-3 cells assessed as growth inhibition at 10 uM relative to control; assay type: functional; settings: read-out: GI
IGROV-1 = assay: Cytotoxicity against human IGROV-1 cells assessed as growth inhibition at 10 uM relative to control; assay type: functional; settings: read-out: GI
Hs-578T = assay: Cytotoxicity against human Hs-578T cells assessed as growth inhibition at 10 uM relative to control; assay type: functional; settings: read-out: GI
A498 = assay: Cytotoxicity against human A498 cells assessed as growth inhibition at 10 uM relative to control; assay type: functional; settings: read-out: GI
RPMI-8226 = assay: Cytotoxicity against human RPMI-8226 cells assessed as growth inhibition at 10 uM relative to control; assay type: functional; settings: read-out: GI
BT-549 = assay: Cytotoxicity against human BT-549 cells assessed as growth inhibition at 10 uM relative to control; assay type: functional; settings: read-out: GI
MCF7 = assay: Cytotoxicity against human MCF7 cells assessed as growth inhibition at 10 uM relative to control; assay type: functional; settings: read-out: GI
M14 [11] = assay: cells; settings: Homo sapiens, M14, 24 h
NCI-H522 = assay: Cytotoxicity against human NCI-H522 cells assessed as growth inhibition at 10 uM relative to control; assay type: functional; settings: read-out: GI
SR = assay: Cytotoxicity against human SR cells assessed as growth inhibition at 10 uM relative to control; assay type: functional; settings: read-out: GI
MDA-MB-231 = assay: Cytotoxicity against human MDA-MB-231 cells assessed as growth inhibition at 10 uM relative to control; assay type: functional; settings: read-out: GI
786-0 = assay: Cytotoxicity against human 786-0 cells assessed as growth inhibition at 10 uM relative to control; assay type: functional; settings: read-out: GI
UO-31 [12] = assay: cells; settings: Homo sapiens, UO-31, light or radiation study
KM12 = assay: Cytotoxicity against human KM12 cells assessed as growth inhibition at 10 uM relative to control; assay type: functional; settings: read-out: GI
SK-OV-3 = assay: Cytotoxicity against human SK-OV-3 cells assessed as growth inhibition at 10 uM relative to control; assay type: functional; settings: read-out: GI
HT-29 = assay: Cytotoxicity against human HT-29 cells assessed as growth inhibition at 10 uM relative to control; assay type: functional; settings: read-out: GI
UO-31 [13] = assay: cells; settings: Homo sapiens, UO-31, 24 h
EKVX = assay: Cytotoxicity against human EKVX cells assessed as growth inhibition at 10 uM relative to control; assay type: functional; settings: read-out: GI
RXF 393 = assay: Cytotoxicity against human RXF 393 cells assessed as growth inhibition at 10 uM relative to control; assay type: functional; settings: read-out: GI
A549 = assay: Cytotoxicity against human A549 cells assessed as growth inhibition at 10 uM relative to control; assay type: functional; settings: read-out: GI
NCI-H226 = assay: Cytotoxicity against human NCI-H226 cells assessed as growth inhibition at 10 uM relative to control; assay type: functional; settings: read-out: GI
NCI-H322M = assay: Cytotoxicity against human NCI-H322M cells assessed as growth inhibition at 10 uM relative to control; assay type: functional; settings: read-out: GI
HOP-62 = assay: Cytotoxicity against human HOP-62 cells assessed as growth inhibition at 10 uM relative to control; assay type: functional; settings: read-out: GI

Chain of Vascular endothelial growth factor A, long form (Homo sapiens) (P15692 whole entry): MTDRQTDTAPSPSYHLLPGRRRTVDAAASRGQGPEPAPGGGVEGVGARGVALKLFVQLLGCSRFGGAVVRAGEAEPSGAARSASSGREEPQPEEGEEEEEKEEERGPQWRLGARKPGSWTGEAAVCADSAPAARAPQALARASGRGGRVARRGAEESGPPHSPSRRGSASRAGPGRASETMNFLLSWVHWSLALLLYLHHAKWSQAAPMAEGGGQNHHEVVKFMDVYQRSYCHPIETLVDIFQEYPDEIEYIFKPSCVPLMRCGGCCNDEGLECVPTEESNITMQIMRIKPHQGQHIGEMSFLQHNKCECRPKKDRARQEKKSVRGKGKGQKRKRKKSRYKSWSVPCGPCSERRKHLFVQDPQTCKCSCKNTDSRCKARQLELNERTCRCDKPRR

| Compound | inhibition of growth at 10 µM (UO-31 [1]) | inhibition of growth at 10 µM (HOP-92) | inhibition of growth at 10 µM (CCRF-CEM) | inhibition of growth at 10 µM (UACC-62) | inhibition of growth at 10 µM (U-251) | inhibition of growth at 10 µM (CAKI-1) | inhibition of growth at 10 µM (SF-268) | inhibition of growth at 10 µM (MOLT-4) | inhibition of growth at 10 µM (T47D) | inhibition of growth at 10 µM (LOX IMVI) | inhibition of growth at 10 µM (SNB-75) | inhibition of growth at 10 µM (MDA-MB-468) | inhibition of growth at 10 µM (K562) | inhibition of growth at 10 µM (IGROV-1) | inhibition of growth at 10 µM (Hs-578T) | inhibition of growth at 10 µM (A498) | inhibition of growth at 10 µM (RPMI-8226) | inhibition of growth at 10 µM (BT-549) | inhibition of growth at 10 µM (MCF7) | inhibition of growth at 10 µM (NCI-H522) | other results |
| --- | --- | --- | --- | --- | --- | --- | --- | --- | --- | --- | --- | --- | --- | --- | --- | --- | --- | --- | --- | --- | --- |
| NS(=O)(=O)c1ccc(-n2c(SCC(=O)Nc3ccc(S(=O)(=O)Nc4ccc(Cl)nn4)cc3)nc3ccccc3c2=O)cc1 | 17% | 24% | 10% |  |  |  |  |  |  |  |  |  |  |  |  |  |  |  |  |  | inhibition of growth at 10 µM (NCI-H23): 14%; inhibition of growth at 10 µM (UACC-257): 10%; inhibition of growth at 10 µM (ACHN): 10%; inhibition of growth at 10 µM (SF-539): 11%; inhibition of growth at 10 µM (NCI/ADR-RES): 11% |
| CNC(=O)c1cc(Oc2ccc(NC(=O)Nc3ccc(Cl)c(C(F)(F)F)c3)cc2)ccn1 [SORAFENIB] |  |  |  |  |  |  |  |  |  |  |  |  |  |  |  |  |  |  |  |  | Activity (UO-31 [2]): 1.47%; Activity (UO-31 [3]): 4.72%; IC50 [4]: 0.04 µM; Activity (UO-31 [5]): 409.2 pg/mL; Activity (UO-31 [6]): 19.42%; Activity (UO-31 [7]): 3.898 ng/mL; Activity [8]: 46.7%; Activity (UO-31 [9]): 31.17% |
| O=C(CSc1nc2ccccc2c(=O)n1-c1ccc(S(=O)(=O)Nc2ccc(Cl)nn2)cc1)Nc1ccccc1 | 13% |  | 11% | 35% | 22% | 12% | 10% | 18% | 18% | 18% | 11% | 15% | 12% | 13% | 27% | 15% | 11% | 13% | 17% | 10% | IC50 (M14 [10]): 4.76 µM; inhibition of growth at 10 µM (PC-3): 14%; IC50 (M14 [11]): 4.46 µM |
| O=C(CSc1nc2ccccc2c(=O)n1-c1ccc(S(=O)(=O)Nc2ccc(Cl)nn2)cc1)NCCc1ccccc1 | 29% | 12% | 14% | 20% |  |  | 13% | 20% | 27% | 14% |  | 10% | 11% | 15% | 23% | 37% | 11% | 10% | 24% | 22% | inhibition of growth at 10 µM (SR): 21%; inhibition of growth at 10 µM (MDA-MB-231): 20%; inhibition of growth at 10 µM (786-0): 16%; IC50 (UO-31 [12]): 3.49 µM; inhibition of growth at 10 µM (KM12): 14%; inhibition of growth at 10 µM (SK-OV-3): 20%; inhibition of growth at 10 µM (HT-29): 11%; IC50 (UO-31 [13]): 3.14 µM; inhibition of growth at 10 µM (EKVX): 24% |
| O=C(CSc1nc2ccccc2c(=O)n1-c1ccc(S(=O)(=O)Nc2ccc(Cl)nn2)cc1)NCc1ccccc1 | 12% |  |  | 18% |  | 14% |  | 12% | 24% |  | 12% | 16% |  |  |  | 18% | 21% |  | 11% | 14% | inhibition of growth at 10 µM (SR): 12%; inhibition of growth at 10 µM (786-0): 10%; inhibition of growth at 10 µM (RXF 393): 18%; inhibition of growth at 10 µM (A549): 11% |
| CCCCn1c(SCC(=O)Nc2ccc(S(=O)(=O)Nc3ccc(Cl)nn3)cc2)nc2ccccc2c1=O | 29% | 32% |  | 14% | 10% | 18% |  |  |  |  | 23% |  |  | 15% |  |  |  | 14% |  | 13% | inhibition of growth at 10 µM (NCI-H226): 10%; inhibition of growth at 10 µM (NCI-H322M): 12%; inhibition of growth at 10 µM (MDA-MB-231): 10%; inhibition of growth at 10 µM (SK-OV-3): 16%; IC50 (UO-31 [13]): 14.7 µM; inhibition of growth at 10 µM (EKVX): 11%; inhibition of growth at 10 µM (HOP-62): 14% |
